Laboratory results published in ChEMBL document CHEMBL3758085, “Synthesis and cytotoxicity of thieno[2,3-b]quinoline-2-carboxamide and cycloalkyl[b]thieno[3,2-e]pyridine-2-carboxamide derivatives” (Bioorg Med Chem, 2016).

Key:
[1] = Antiproliferative activity against human HCT116 cells assessed as cell growth at 1 uM incubated for 3 days by 3H-thymidine incorporation assay relative to control; format: functional; details: HCT-116, read-out: Activity
[2] = tested on: MDA-MB-468; assay: Antiproliferative activity against human MDA-MB-468 cells assessed as cell growth at 1 uM incubated for 3 days by 3H-thymidine incorporation assay relative to control; format: functional; details: read-out: Activity
[3] = tested on: MDA-MB-231; assay: Antiproliferative activity against human MDA-MB-231 cells assessed as cell growth at 1 uM incubated for 3 days by 3H-thymidine incorporation assay relative to control; format: functional; details: read-out: Activity
[4] = Antiproliferative activity against human HCT116 cells assessed as cell growth incubated for 3 days by 3H-thymidine incorporation assay relative to control; format: functional, cell-based; details: HCT-116
[5] = tested on: MDA-MB-468; assay: Antiproliferative activity against human MDA-MB-468 cells assessed as cell growth incubated for 3 days by 3H-thymidine incorporation assay relative to control; format: functional, cell-based
[6] = tested on: MDA-MB-231; assay: Antiproliferative activity against human MDA-MB-231 cells assessed as cell growth incubated for 3 days by 3H-thymidine incorporation assay relative to control; format: functional, cell-based
[7] = tested on: K562; assay: Antiproliferative activity against human K562 cells assessed as cell growth incubated for 3 days by 3H-thymidine incorporation assay relative to control; format: functional, cell-based

Structure (SMILES)	growth at 1 µM [1]	growth at 1 µM [2]	growth at 1 µM [3]	IC50 [4]	IC50 [5]	IC50 [6]	IC50 [7]
Nc1c(C(=O)Nc2cccc(Br)c2)sc2nc3c(cc12)CCCCC3	83%	45%	92%	–	–	–	–
Cc1cc(C)c(NC(=O)c2sc3nc4c(cc3c2N)CCCCC4)c(C)c1	99%	89%	98%	–	–	–	–
Nc1c(C(=O)Nc2ccccc2)sc2nc3c(cc12)CCCC3	5%	8%	22%	594 nM	407 nM	617 nM	526 nM
Nc1c(C(=O)Nc2ccccc2F)sc2nc3c(cc12)CCCCCC3	5%	5%	24%	599 nM	372 nM	587 nM	562 nM
Nc1c(C(=O)Nc2ccccc2)sc2nc3c(c(-c4ccco4)c12)CCCCC3	65%	71%	89%	–	–	–	–
COc1ccc2nc3sc(C(=O)Nc4cc(Cl)ccc4OC)c(N)c3cc2c1	100%	104%	86%	–	–	–	–
Cc1ccc2cc3cc(C(=O)Nc4cnc5ccccc5c4)sc3nc2c1	99%	87%	97%	–	–	–	–
Cc1ccc2nc3sc(C(=O)Nc4cccnc4)cc3cc2c1	102%	101%	81%	–	–	–	–
Nc1c(C(=O)Nc2cccc([N+](=O)[O-])c2)sc2nc3c(cc12)CCCCC3	51%	18%	67%	–	–	–	–
Nc1c(C(=O)Nc2ccc(F)cc2)sc2nc3c(cc12)CCCCCC3	82%	65%	100%	–	–	–	–
Nc1c(C(=O)Nc2ccc3ccccc3c2)sc2nc3c(cc12)CCCCC3	103%	97%	118%	–	–	–	–
CCc1ccccc1NC(=O)c1sc2nc3c(cc2c1N)CCCC3	86%	63%	89%	–	–	–	–
CCOc1ccc2nc3sc(C(=O)Nc4ccc(Cl)cc4)c(N)c3cc2c1	100%	93%	97%	–	–	–	–
Nc1c(C(=O)Nc2ccccc2C(F)(F)F)sc2nc3c(cc12)CCCC3	104%	93%	128%	–	–	–	–
COc1ccc(NC(=O)c2sc3nc4c(cc3c2N)CCCCC4)cc1OC	98%	77%	114%	–	–	–	–
Cc1ccc2nc3sc(C(=O)Nc4cccc(F)c4)cc3cc2c1	98%	91%	103%	–	–	–	–
Nc1c(C(=O)Nc2ccccc2Cl)sc2nc3c(c(C(F)(F)F)c12)CCCCCC3	112%	100%	116%	–	–	–	–
Nc1c(C(=O)Nc2cccc([N+](=O)[O-])c2)sc2nc3c(cc12)CCC3	79%	46%	79%	–	–	–	–
COc1ccc(NC(=O)c2sc3nc4c(cc3c2N)CCCC4)cc1	99%	84%	98%	–	–	–	–
Nc1c(C(=O)Nc2cccc3ccccc23)sc2nc3c(cc12)CCCCC3	93%	91%	106%	–	–	–	–
CC(=O)c1ccc(NC(=O)c2sc3nc4ccccc4cc3c2N)cc1	93%	70%	95%	–	–	–	–

Structure (SMILES)	growth at 1 µM [1]	growth at 1 µM [2]	growth at 1 µM [3]	IC50 [4]	IC50 [5]	IC50 [6]	IC50 [7]
Nc1c(C(=O)Nc2cccc(C(F)(F)F)c2)sc2nc3c(cc12)CCCCC3	108%	92%	94%	–	–	–	–
Nc1c(C(=O)Nc2ccc(Cl)cc2)sc2nc3c(cc12)CCCCCC3	94%	82%	117%	–	–	–	–
Cc1ccc(C)c(NC(=O)c2cc3cc4cc(C)ccc4nc3s2)c1	98%	77%	103%	–	–	–	–
COc1ccc(NC(=O)c2sc3nc4c(cc3c2N)CCCCCC4)cc1OC	106%	107%	102%	–	–	–	–
Cc1ccccc1NC(=O)c1sc2nc3c(cc2c1N)CCCCC3	66%	25%	43%	–	–	–	–
COc1ccc(NC(=O)c2sc3nc4ccccc4cc3c2N)cc1	97%	68%	101%	–	–	–	–
Nc1c(C(=O)Nc2cccc(Cl)c2)sc2nc3c(cc12)CCC3	87%	53%	92%	–	–	–	–
Nc1c(C(=O)Nc2ccccc2F)sc2nc3c(cc12)CCCC3	84%	48%	92%	–	–	–	–
CCCCOc1cccc(NC(=O)c2sc3nc4c(cc3c2N)CCCCC4)c1	97%	53%	100%	–	–	–	–
Cc1ccc2nc3sc(C(=O)Nc4ccccc4C)cc3cc2c1	99%	89%	104%	–	–	–	–
Nc1c(C(=O)Nc2ccccc2)sc2nc3c(cc12)CCC3	94%	76%	90%	–	–	–	–
Cc1cc(C)c(NC(=O)c2sc3nc4c(cc3c2N)CCCC4)c(C)c1	101%	93%	97%	–	–	–	–
CCc1cccc(C)c1NC(=O)c1sc2nc3c(cc2c1N)CCCC3	96%	67%	84%	–	–	–	–
COc1ccc(OC)c(NC(=O)c2sc3nc4c(cc3c2N)CCCCCC4)c1	107%	94%	131%	–	–	–	–
Nc1c(C(=O)Nc2ccc3ccccc3c2)sc2nc3c(cc12)CCC3	94%	64%	81%	–	–	–	–
Cc1cccc(NC(=O)c2cc3cc4cc(C)ccc4nc3s2)c1	100%	84%	105%	–	–	–	–
Nc1c(C(=O)Nc2cccc(Br)c2)sc2nc3c(cc12)CCC3	93%	53%	94%	–	–	–	–
CCc1cccc(CC)c1NC(=O)c1sc2nc3c(cc2c1N)CCCC3	108%	116%	115%	–	–	–	–
Nc1c(C(=O)Nc2ccccc2Cl)sc2nc3c(cc12)CCCCC3	92%	73%	89%	–	–	–	–
CCc1cccc(NC(=O)c2sc3nc4c(cc3c2N)CC(CC)CC4)c1 (stereo unspecified)	73%	12%	73%	–	–	–	–
O=c1c2sc3ncccc3c2ncn1-c1ccccc1	96%	101%	107%	–	–	–	–

Structure (SMILES)	growth at 1 µM [1]	growth at 1 µM [2]	growth at 1 µM [3]	IC50 [4]	IC50 [5]	IC50 [6]	IC50 [7]
COc1ccc(NC(=O)c2sc3nc4c(cc3c2N)CCCCCC4)c(OC)c1	109%	110%	119%	–	–	–	–
Nc1c(C(=O)Nc2cc(C(F)(F)F)ccc2Cl)sc2nc3c(cc12)CCCCC3	98%	106%	105%	–	–	–	–
Nc1c(C(=O)Nc2cccc(Br)c2)sc2nc3c(cc12)CCCC3	85%	45%	101%	–	–	–	–
Nc1c(C(=O)Nc2cccc(C(F)(F)F)c2)sc2nc3c(cc12)CCC3	90%	58%	100%	–	–	–	–
Cc1ccc2nc3sc(C(=O)Nc4ccccc4)cc3cc2c1	95%	81%	92%	–	–	–	–
CCOc1ccc2nc3sc(C(=O)Nc4ccc(C(C)=O)cc4)c(N)c3cc2c1	96%	87%	97%	–	–	–	–
COc1ccc(OC)c(NC(=O)c2sc3nc4c(cc3c2N)CCCCC4)c1	98%	94%	117%	–	–	–	–
Nc1c(C(=O)Nc2ccccc2C(F)(F)F)sc2nc3c(cc12)CCCCC3	112%	100%	124%	–	–	–	–
COc1ccc(NC(=O)c2sc3nc4c(cc3c2N)CCCCCC4)cc1	106%	84%	107%	–	–	–	–
Nc1c(C(=O)Nc2ccc3ccccc3c2)sc2nc3c(cc12)CCCC3	100%	76%	120%	–	–	–	–
Nc1c(C(=O)Nc2c(Cl)cccc2Cl)sc2nc3c(cc12)CCCC3	100%	82%	93%	–	–	–	–
Cc1ccc2cc3c(N)c(C(=O)Nc4ccccc4[N+](=O)[O-])sc3nc2c1	102%	101%	90%	–	–	–	–
Nc1c(C(=O)Nc2cccc(Cl)c2)sc2nc3c(cc12)CCCCC3	86%	39%	95%	–	–	–	–
Nc1c(C(=O)Nc2ccc(Cl)c(Cl)c2)sc2nc3c(cc12)CCCCC3	103%	77%	115%	–	–	–	–
Nc1c(C(=O)Nc2cccc([N+](=O)[O-])c2)sc2nc3c(cc12)CCCC3	75%	44%	71%	–	–	–	–
CC(=O)c1cccc(NC(=O)c2sc3nc4c(cc3c2N)CCCCCC4)c1	85%	72%	117%	–	–	–	–
Cc1ccccc1NC(=O)c1sc2nc3c(cc2c1N)CCCC3	84%	53%	70%	–	–	–	–
Nc1c(C(=O)Nc2cccc(C(F)(F)F)c2)sc2nc3c(cc12)CCCC3	82%	41%	108%	–	–	–	–
Nc1c(C(=O)Nc2cccc3ccccc23)sc2nc3c(cc12)CCC3	92%	67%	80%	–	–	–	–
